Assay results from the supplement of paper PMC10307832.

Tests used:
Test in all cases: relative viability (nuclei count vs DMSO), 5 days (fraction); higher = more cells survive
IDH-C35 + AZD7762 = compound: Cc1ccccc1C(C(=O)NC1CCCCC1)N(C(=O)Cn1ccnc1C)c1cccc(F)c1 [IDH-C35] + NC(=O)Nc1cc(-c2cccc(F)c2)sc1C(=O)N[C@H]1CCCNC1 [AZD7762] (partner 0.2 µM)
In short: (§1)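 The day after seeding in 1536-well plates, lung cancer cell lines were treated by pin tool with a single drug, or with a fixed anchor-drug dose together with five library-drug doses (not always all listed) in √10 steps. After 5 days, a combined fix-and-stain solution (final 0.05% Triton X-100, 1% formaldehyde, 1 ug/ml Hoechst) was added. Nuclei counted on 4× images gave relative viability as treated counts over vehicle counts, reported as the median of duplicate plates.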

[1] = compound: CC1=C(C(=NN1)C)CC2=C(C3=C(S2)N(C(=O)N(C3=O)C)CC(C)C)C(=O)N4C[C@@H](CO4)O + CS(=O)(=O)N1CCN(Cc2cc3nc(-c4cccc5[nH]ncc45)nc(N4CCOCC4)c3s2)CC1 [Pictilisib] (partner 1 µM)
In short: as §1

[2] = compound: CC1=C(C(=NN1)C)CC2=C(C3=C(S2)N(C(=O)N(C3=O)C)CC(C)C)C(=O)N4C[C@@H](CO4)O + Nc1ncn([C@H]2C[C@H](O)[C@@H](CO)O2)c(=O)n1 [Decitabine] (partner 2 µM)
In short: as §1

IDH-C35 + Trametinib = compound: Cc1ccccc1C(C(=O)NC1CCCCC1)N(C(=O)Cn1ccnc1C)c1cccc(F)c1 [IDH-C35] + CC(=O)Nc1cccc(-n2c(=O)n(C3CC3)c(=O)c3c(Nc4ccc(I)cc4F)n(C)c(=O)c(C)c32)c1 [Trametinib] (partner 0.02 µM)
In short: as §1

Cell Line	relative viability (IDH-C35 + AZD7762; first compound 0.08 µM)	relative viability (IDH-C35 + AZD7762; first compound 0.253 µM)	relative viability (IDH-C35 + AZD7762; first compound 0.8 µM)	relative viability (IDH-C35 + AZD7762; first compound 2.53 µM)	relative viability (IDH-C35 + AZD7762; first compound 8 µM)	relative viability ([1]; first compound 0.0025 µM)	relative viability ([1]; first compound 0.007906 µM)	relative viability ([1]; first compound 0.025 µM)	relative viability ([1]; first compound 0.07906 µM)	relative viability ([1]; first compound 0.25 µM)	relative viability ([2]; first compound 0.0025 µM)	relative viability ([2]; first compound 0.007906 µM)	relative viability ([2]; first compound 0.025 µM)	relative viability ([2]; first compound 0.07906 µM)	relative viability ([2]; first compound 0.25 µM)	relative viability (IDH-C35 + Trametinib; first compound 0.08 µM)	relative viability (IDH-C35 + Trametinib; first compound 0.253 µM)	relative viability (IDH-C35 + Trametinib; first compound 0.8 µM)	relative viability (IDH-C35 + Trametinib; first compound 2.53 µM)	relative viability (IDH-C35 + Trametinib; first compound 8 µM)
LCLC-103H	0.831	0.792	0.81	0.779	0.829	0.682	0.615	0.704	0.517	0.721	0.753	0.746	0.766	0.644	0.701	0.704	0.672	0.727	0.656	0.7
LK-2	0.422	0.542	0.37	0.444	0.336	0.548	0.509	0.67	0.696	0.607	0.261	0.397	0.268	0.237	0.273	0.719	0.762	0.735	0.779	0.745
LOU-NH91	0.805	0.73	0.753	0.765	0.815	0.503	0.494	0.495	0.571	0.529	0.83	0.798	0.839	0.864	0.823	0.804	0.785	0.781	0.742	0.803
LU99A	0.326	0.398	0.396	0.335	0.36	0.351	0.314	0.331	0.345	0.327	0.784	0.979	0.825	0.901	0.976	0.527	0.643	0.56	0.527	0.524
LXF-289	1.1	1.06	1.13	1.06	1.19	0.862	0.82	0.779	0.804	0.826	0.432	0.395	0.354	0.393	0.443	0.701	0.628	0.643	0.676	0.668
NCI-H23	0.239	0.253	0.229	0.359	0.272	0.528	0.489	0.523	0.494	0.651	0.307	0.329	0.289	0.345	0.334	0.347	0.456	0.282	0.392	0.325
NCI-H322M	0.532	0.65	0.476	0.538	0.546	0.519	0.504	0.562	0.58	0.5	0.63	0.736	0.698	0.659	0.707	0.451	0.485	0.55	0.488	0.507
NCI-H358	0.609	0.544	0.477	0.492	0.426	0.41	0.348	0.359	0.375	0.375	0.198	0.237	0.208	0.204	0.217	0.132	0.152	0.128	0.159	0.144
NCI-H441	1.39	1.31	1.09	1.21	0.98	0.575	0.446	0.431	0.616	0.656	0.215	0.255	0.298	0.267	0.272	0.435	0.415	0.5	0.542	0.484
NCI-H460	0.623	0.663	0.609	0.586	0.578	0.432	0.492	0.356	0.367	0.387	0.512	0.604	0.502	0.494	0.557	0.165	0.133	0.176	0.165	0.0866
NCI-H596	0.959	1.14	1.01	1.05	1.26	0.387	0.369	0.387	0.431	0.593	1.11	1.1	1.1	0.989	1.06	0.892	0.722	0.808	0.746	0.737
NCI-H647	0.489	0.488	0.424	0.42	0.418	0.494	0.444		0.525	0.483	0.48	0.44	0.298	0.535	0.321	0.488	0.378	0.444	0.473	0.47
NCI-H650	1.04	1.26	1.13		0.97	0.898	0.826	0.819	0.824	0.926	0.321	0.39	0.336	0.329	0.361	1.03	0.935	0.861		0.914
NCI-H727	0.633	0.655	0.539	0.469	0.597	0.403	0.483	0.336	0.385	0.517	0.807	0.915	0.862	0.943	0.969	0.376	0.357	0.34	0.393	0.372
NCI-H838	1.09	0.922	0.918	0.953	0.925	0.506	0.507	0.607	0.511	0.552	0.447	0.489	0.43	0.455	0.444	0.579	0.505	0.508	0.507	0.503
NCI-H1355	0.805	0.889	0.715	0.72	0.657	0.45	0.562	0.528	0.405	0.5	0.443	0.375	0.346	0.324	0.332	0.453	0.424	0.398	0.392	0.423

Cell Line	relative viability (IDH-C35 + AZD7762; first compound 0.08 µM)	relative viability (IDH-C35 + AZD7762; first compound 0.253 µM)	relative viability (IDH-C35 + AZD7762; first compound 0.8 µM)	relative viability (IDH-C35 + AZD7762; first compound 2.53 µM)	relative viability (IDH-C35 + AZD7762; first compound 8 µM)	relative viability ([1]; first compound 0.0025 µM)	relative viability ([1]; first compound 0.007906 µM)	relative viability ([1]; first compound 0.025 µM)	relative viability ([1]; first compound 0.07906 µM)	relative viability ([1]; first compound 0.25 µM)	relative viability ([2]; first compound 0.0025 µM)	relative viability ([2]; first compound 0.007906 µM)	relative viability ([2]; first compound 0.025 µM)	relative viability ([2]; first compound 0.07906 µM)	relative viability ([2]; first compound 0.25 µM)	relative viability (IDH-C35 + Trametinib; first compound 0.08 µM)	relative viability (IDH-C35 + Trametinib; first compound 0.253 µM)	relative viability (IDH-C35 + Trametinib; first compound 0.8 µM)	relative viability (IDH-C35 + Trametinib; first compound 2.53 µM)	relative viability (IDH-C35 + Trametinib; first compound 8 µM)
NCI-H1395	0.396	0.408	0.407	0.446	0.403	0.63	0.598	0.525	0.634	0.735	0.801	0.68	0.707	0.763	0.694	1.12	1.05	1.05	0.903	0.919
NCI-H1437	1.09	1.12	1.17	1.06	1.08	0.461	0.44	0.451	0.46	0.465	0.532	0.59	0.519	0.612	0.548	0.514	0.522	0.534	0.51	0.489
NCI-H1651	0.454	0.518	0.463	0.438	0.413	0.579	0.634	0.651	0.558	0.52	0.519	0.699	0.538	0.579	0.567	0.856	0.899	0.838	0.858	0.832
NCI-H1666	0.934	1.03	0.795	0.712	0.94	0.405	0.399	0.53	0.482	0.406	0.631	0.831	0.74	0.666	0.658	0.813	0.854	0.902	0.799	0.876
NCI-H1734	0.575	0.623	0.532	0.49	0.551	0.474	0.544	0.488	0.473	0.486	0.561	0.516	0.533	0.451	0.503	0.656	0.811	0.603	0.661	0.616
NCI-H1755	0.47	0.574	0.453	0.452	0.462	0.445	0.42	0.44	0.479	0.497	0.699	0.811	0.742	0.646	0.696	0.754	0.735	0.762	0.73	0.675
NCI-H1792	0.795	0.725	0.657	0.719	0.609	0.33	0.263	0.273	0.193	0.246	0.483	0.489	0.408	0.451	0.517	0.393	0.338	0.485	0.405	0.544
NCI-H1793	0.46	0.446	0.46	0.349	0.443	0.308	0.395	0.166	0.226	0.272	0.295	0.517	0.471	0.449	0.524	0.42	0.45	0.374	0.472	0.401
NCI-H1915	0.674	0.7	0.696	0.663	0.716	0.965	0.927	0.897	0.878	0.975	0.279	0.265	0.242	0.258	0.265	0.316	0.315	0.275	0.278	0.276
NCI-H1944	0.587	0.731	0.492	0.462	0.491	0.351	0.376	0.356	0.389	0.386	0.452	0.46	0.462	0.404	0.448	0.392	0.421	0.42	0.332	0.393
NCI-H1975	0.755	0.75	0.766	0.818	0.793	0.324	0.298	0.293	0.301	0.315	0.37	0.41	0.393	0.444	0.423	0.384	0.363	0.323	0.345	0.32
NCI-H1993	0.755	0.749	0.755	0.784	0.713	0.866	0.888	0.89	0.728	0.756	0.59	0.523	0.607	0.595	0.536	0.479	0.586	0.632	0.542	0.645
NCI-H2085	1.04	1.09	0.953	0.985	0.924	0.527	0.455	0.449	0.468	0.399	0.526	0.543	0.536	0.473	0.661	0.634	0.493	0.571	0.729	0.457
NCI-H2087	1.39	1.32	1.16	1.23	1.36	0.958	0.908	0.838	1.04	0.921	0.315	0.28	0.274	0.295	0.248	0.211	0.226	0.264	0.265	0.197
NCI-H2126	0.983	0.96	0.983	0.927	0.946	0.513	0.493	0.509	0.478	0.494	0.575	0.561	0.564	0.512	0.603	0.568	0.563	0.564	0.519	0.537
NCI-H2170	1.04	0.919	0.899	0.786	0.757	0.228	0.293	0.298	0.341	0.297	0.495	0.514	0.462	0.441	0.481	0.855	0.864	0.882	0.85	0.93
